According to patent US20240409585A1, “MACROCYCLIC IMMUNOMODULATORS” (priority 2021, published 2024):
Bridge positions count the residues as written; N and C are the ends. Square brackets hold non-standard residues; d marks the D form. Peptide text beside a SMILES is read from it. * marks the point of attachment. Phe(3-CF3) = N[C@@H](Cc1cccc(C(F)(F)F)c1)C(=O)O; Phe(4-COOH) = N[C@@H](Cc1ccc(C(=O)O)cc1)C(=O)O; Bip = N[C@@H](Cc1ccc(-c2ccccc2)cc1)C(=O)O; Phe(3-CN) = N#Cc1cccc(C[C@H](N)C(=O)O)c1; Phe(3-Cl) = N[C@@H](Cc1cccc(Cl)c1)C(=O)O; Phe(4-CN) = N#Cc1ccc(C[C@H](N)C(=O)O)cc1; Phe(3-Me) = Cc1cccc(C[C@H](N)C(=O)O)c1; Phe(2-F) = N[C@@H](Cc1ccccc1F)C(=O)O; 4Pal = N[C@@H](Cc1ccncc1)C(=O)O; Cit = NC(=O)NCCC[C@H](N)C(=O)O; Carboxymethyl = O=C(O)C*; NMeA = CN[C@@H](C)C(=O)O; Dab = NCC[C@H](N)C(=O)O; Dap = NC[C@H](N)C(=O)O

Target: T1, PE-labeled human PD-L1-Ig binding to Jurkat cell line over-expressing human PD-1 (Jurkat-PD-1) (Homo sapiens, UniProt Q15116)
T1 construct: expressed in transfected cells; host or cells: Jurkat
Test: Jurkat-PD-1 Cell Binding High-Content Screening Assay (CBA): Method 1
Conditions: Jurkat-hPD-1 cells, PE-labeled PD-L1-Ig 20 nM final; read-out: Jurkat HPDL1 PD1 IC50 (uM) (Method 1)

T1 sequence (Q15116 25-288): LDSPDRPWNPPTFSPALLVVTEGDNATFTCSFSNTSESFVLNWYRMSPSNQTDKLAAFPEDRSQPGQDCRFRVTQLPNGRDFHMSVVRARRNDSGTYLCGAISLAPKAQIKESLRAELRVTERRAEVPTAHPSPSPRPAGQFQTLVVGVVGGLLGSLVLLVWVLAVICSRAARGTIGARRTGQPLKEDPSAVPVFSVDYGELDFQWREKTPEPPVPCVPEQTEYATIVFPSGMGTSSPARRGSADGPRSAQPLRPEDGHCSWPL

IC50 [µM] | SMILES
0.04 | Cc1cccc(C[C@@H]2NC(=O)[C@H](CC(=O)O)NC(=O)[C@H](Cc3ccc(O)cc3)NC(=O)[C@H](CN)NC(=O)CSC[C@@H](C(=O)N[C@@H](C)C(N)=O)NC(=O)[C@H]([C@@H](C)O)NC(=O)[C@H](C(C)C)NC(=O)[C@H](CC(C)C)NC(=O)[C@H](CCN)NC(=O)[C@@H](CC(C)C)NC(=O)[C@H](C)N(C)C(=O)[C@H](C(C)C)NC(=O)[C@H](Cc3ccc(-c4ccccc4)cc3)NC(=O)[C@H](C(C)C)NC2=O)c1 [Compound 1428] ({CH2CO}-[Dap]YD[Phe(3-Me)]V[Bip]V[NMeA][dL][Dab]LVTCA-NH2; thioether N-14)
0.01 | Cc1cccc(C[C@@H]2NC(=O)[C@H](CC(=O)O)NC(=O)[C@H](Cc3ccc(C(=O)O)cc3)NC(=O)[C@H](CN)NC(=O)CSC[C@@H](C(=O)N[C@@H](C)C(N)=O)NC(=O)[C@H]([C@@H](C)O)NC(=O)[C@H](C(C)C)NC(=O)[C@H](CC(C)C)NC(=O)[C@H](CCN)NC(=O)[C@@H](CC(C)C)NC(=O)[C@H](C)N(C)C(=O)[C@H](CCCNC(N)=O)NC(=O)[C@H](Cc3ccc(-c4ccccc4)cc3)NC(=O)[C@H](C(C)C)NC2=O)c1 [Compound 1429] ({CH2CO}-[Dap][Phe(4-COOH)]D[Phe(3-Me)]V[Bip][Cit][NMeA][dL][Dab]LVTCA-NH2; thioether N-14)
0.01 | Cc1cccc(C[C@@H]2NC(=O)[C@H](CC(=O)O)NC(=O)[C@H](Cc3ccc(C(=O)O)cc3)NC(=O)[C@H](Cc3ccncc3)NC(=O)CSC[C@@H](C(=O)N[C@@H](C)C(N)=O)NC(=O)[C@H]([C@@H](C)O)NC(=O)[C@H](C(C)C)NC(=O)[C@H](CC(C)C)NC(=O)[C@H](CCN)NC(=O)[C@@H](CC(C)C)NC(=O)[C@H](C)N(C)C(=O)[C@H](CCCNC(N)=O)NC(=O)[C@H](Cc3ccc(-c4ccccc4)cc3)NC(=O)[C@H](C(C)C)NC2=O)c1 [Compound 1431] ({CH2CO}-[4Pal][Phe(4-COOH)]D[Phe(3-Me)]V[Bip][Cit][NMeA][dL][Dab]LVTCA-NH2; thioether N-14)
0.05 | CC(C)C[C@@H]1NC(=O)[C@H](CCN)NC(=O)[C@@H](CC(C)C)NC(=O)[C@H](C)N(C)C(=O)[C@H](Cc2cnc[nH]2)NC(=O)[C@H](Cc2ccc(-c3ccccc3)cc2)NC(=O)[C@H](C(C)C)NC(=O)[C@H](Cc2c[nH]c3ccccc23)NC(=O)[C@H](CC(=O)O)NC(=O)[C@H](Cc2cccc(C#N)c2)NC(=O)[C@H](CN)NC(=O)CSC[C@@H](C(=O)N[C@@H](C)C(N)=O)NC(=O)[C@H]([C@@H](C)O)NC(=O)[C@H](C(C)C)NC1=O [Compound 1432] ({CH2CO}-[Dap][Phe(3-CN)]DWV[Bip]H[NMeA][dL][Dab]LVTCA-NH2; thioether N-14)
0.16 | CC(C)C[C@@H]1NC(=O)[C@H](CCN)NC(=O)[C@@H](CC(C)C)NC(=O)[C@H](C)N(C)C(=O)[C@H](Cc2cnc[nH]2)NC(=O)[C@H](Cc2ccc(-c3ccccc3)cc2)NC(=O)[C@H](C(C)C)NC(=O)[C@H](Cc2c[nH]c3ccccc23)NC(=O)[C@H](CC(=O)O)NC(=O)[C@H](Cc2ccc(C#N)cc2)NC(=O)[C@H](CN)NC(=O)CSC[C@@H](C(=O)N[C@@H](C)C(N)=O)NC(=O)[C@H]([C@@H](C)O)NC(=O)[C@H](C(C)C)NC1=O [Compound 1433] ({CH2CO}-[Dap][Phe(4-CN)]DWV[Bip]H[NMeA][dL][Dab]LVTCA-NH2; thioether N-14)
0.05 | CC(C)C[C@@H]1NC(=O)[C@H](CCN)NC(=O)[C@@H](CC(C)C)NC(=O)[C@H](C)N(C)C(=O)[C@H](Cc2cnc[nH]2)NC(=O)[C@H](Cc2ccc(-c3ccccc3)cc2)NC(=O)[C@H](C(C)C)NC(=O)[C@H](Cc2c[nH]c3ccccc23)NC(=O)[C@H](CC(=O)O)NC(=O)[C@H](Cc2cccc(C(F)(F)F)c2)NC(=O)[C@H](CN)NC(=O)CSC[C@@H](C(=O)N[C@@H](C)C(N)=O)NC(=O)[C@H]([C@@H](C)O)NC(=O)[C@H](C(C)C)NC1=O [Compound 1434] ({CH2CO}-[Dap][Phe(3-CF3)]DWV[Bip]H[NMeA][dL][Dab]LVTCA-NH2; thioether N-14)
0.05 | CC(C)C[C@@H]1NC(=O)[C@H](CCN)NC(=O)[C@@H](CC(C)C)NC(=O)[C@H](C)N(C)C(=O)[C@H](C(C)C)NC(=O)[C@H](Cc2ccc(-c3ccccc3)cc2)NC(=O)[C@H](C(C)C)NC(=O)[C@H](Cc2c[nH]c3ccccc23)NC(=O)[C@H](CC(=O)O)NC(=O)[C@H](Cc2ccc(C#N)cc2)NC(=O)[C@H](CN)NC(=O)CSC[C@@H](C(=O)N[C@@H](C)C(N)=O)NC(=O)[C@H]([C@@H](C)O)NC(=O)[C@H](C(C)C)NC1=O [Compound 1435] ({CH2CO}-[Dap][Phe(4-CN)]DWV[Bip]V[NMeA][dL][Dab]LVTCA-NH2; thioether N-14)
0.06 | CC(C)C[C@@H]1NC(=O)[C@H](CCN)NC(=O)[C@@H](CC(C)C)NC(=O)[C@H](C)N(C)C(=O)[C@H](C(C)C)NC(=O)[C@H](Cc2ccc(-c3ccccc3)cc2)NC(=O)[C@H](C(C)C)NC(=O)[C@H](Cc2c[nH]c3ccccc23)NC(=O)[C@H](CC(=O)O)NC(=O)[C@H](Cc2cccc(C#N)c2)NC(=O)[C@H](CN)NC(=O)CSC[C@@H](C(=O)N[C@@H](C)C(N)=O)NC(=O)[C@H]([C@@H](C)O)NC(=O)[C@H](C(C)C)NC1=O [Compound 1436] ({CH2CO}-[Dap][Phe(3-CN)]DWV[Bip]V[NMeA][dL][Dab]LVTCA-NH2; thioether N-14)
0.02 | Cc1cccc(C[C@@H]2NC(=O)[C@H](CC(=O)O)NC(=O)[C@H](Cc3ccc(OCC(=O)O)cc3)NC(=O)[C@H](CN)NC(=O)CSC[C@@H](C(=O)N[C@@H](C)C(N)=O)NC(=O)[C@H]([C@@H](C)O)NC(=O)[C@H](C(C)C)NC(=O)[C@H](CC(C)C)NC(=O)[C@H](CCN)NC(=O)[C@@H](CC(C)C)NC(=O)[C@H](C)N(C)C(=O)[C@H](CCCNC(N)=O)NC(=O)[C@H](Cc3ccc(-c4ccccc4)cc3)NC(=O)[C@H](C(C)C)NC2=O)c1 [Compound 1437] ({CH2CO}-[Dap]Y(Carboxymethyl)D[Phe(3-Me)]V[Bip][Cit][NMeA][dL][Dab]LVTCA-NH2; thioether N-14)
0.07 | CC(C)C[C@@H]1NC(=O)[C@H](CCN)NC(=O)[C@@H](CC(C)C)NC(=O)[C@H](C)N(C)C(=O)[C@H](Cc2cnc[nH]2)NC(=O)[C@H](Cc2ccc(-c3ccccc3)cc2)NC(=O)[C@H](C(C)C)NC(=O)[C@H](Cc2c[nH]c3ccccc23)NC(=O)[C@H](CC(=O)O)NC(=O)[C@H](Cc2ccc(OCC(=O)O)cc2)NC(=O)[C@H](CN)NC(=O)CSC[C@@H](C(=O)N[C@@H](C)C(N)=O)NC(=O)[C@H]([C@@H](C)O)NC(=O)[C@H](C(C)C)NC1=O [Compound 1438] ({CH2CO}-[Dap]Y(Carboxymethyl)DWV[Bip]H[NMeA][dL][Dab]LVTCA-NH2; thioether N-14)
0.06 | CC(C)C[C@@H]1NC(=O)[C@H](CCN)NC(=O)[C@@H](CC(C)C)NC(=O)[C@H](C)N(C)C(=O)[C@H](Cc2cnc[nH]2)NC(=O)[C@H](Cc2ccc(-c3ccccc3)cc2)NC(=O)[C@H](C(C)C)NC(=O)[C@H](Cc2c[nH]c3ccccc23)NC(=O)[C@H](CC(=O)O)NC(=O)[C@H](Cc2ccc(C(=O)O)cc2)NC(=O)[C@H](CN)NC(=O)CSC[C@@H](C(=O)N[C@@H](C)C(N)=O)NC(=O)[C@H]([C@@H](C)O)NC(=O)[C@H](C(C)C)NC1=O [Compound 1439] ({CH2CO}-[Dap][Phe(4-COOH)]DWV[Bip]H[NMeA][dL][Dab]LVTCA-NH2; thioether N-14)
0.19 | CC(C)C[C@@H]1NC(=O)[C@H](CCN)NC(=O)[C@@H](CC(C)C)NC(=O)[C@H](C)N(C)C(=O)[C@H](Cc2cnc[nH]2)NC(=O)[C@H](Cc2ccc(-c3ccccc3)cc2)NC(=O)[C@H](C(C)C)NC(=O)[C@H](Cc2c[nH]c3ccccc23)NC(=O)[C@H](CC(=O)O)NC(=O)[C@H](Cc2cccc(Cl)c2)NC(=O)[C@H](CN)NC(=O)CSC[C@@H](C(=O)N[C@@H](C)C(N)=O)NC(=O)[C@H]([C@@H](C)O)NC(=O)[C@H](C(C)C)NC1=O [Compound 1440] ({CH2CO}-[Dap][Phe(3-Cl)]DWV[Bip]H[NMeA][dL][Dab]LVTCA-NH2; thioether N-14)
0.09 | CC(C)C[C@@H]1NC(=O)[C@H](CCN)NC(=O)[C@@H](CC(C)C)NC(=O)[C@H](C)N(C)C(=O)[C@H](C(C)C)NC(=O)[C@H](Cc2ccc(-c3ccccc3)cc2)NC(=O)[C@H](C(C)C)NC(=O)[C@H](Cc2c[nH]c3ccccc23)NC(=O)[C@H](CC(=O)O)NC(=O)[C@H](Cc2cccc(Cl)c2)NC(=O)[C@H](CN)NC(=O)CSC[C@@H](C(=O)N[C@@H](C)C(N)=O)NC(=O)[C@H]([C@@H](C)O)NC(=O)[C@H](C(C)C)NC1=O [Compound 1441] ({CH2CO}-[Dap][Phe(3-Cl)]DWV[Bip]V[NMeA][dL][Dab]LVTCA-NH2; thioether N-14)
0.03 | CC(C)C[C@@H]1NC(=O)[C@H](CCN)NC(=O)[C@@H](CC(C)C)NC(=O)[C@H](C)N(C)C(=O)[C@H](C(C)C)NC(=O)[C@H](Cc2ccc(-c3ccccc3)cc2)NC(=O)[C@H](C(C)C)NC(=O)[C@H](Cc2c[nH]c3ccccc23)NC(=O)[C@H](CC(=O)O)NC(=O)[C@H](Cc2ccccc2F)NC(=O)[C@H](CN)NC(=O)CSC[C@@H](C(=O)N[C@@H](C)C(N)=O)NC(=O)[C@H]([C@@H](C)O)NC(=O)[C@H](C(C)C)NC1=O [Compound 1442] ({CH2CO}-[Dap][Phe(2-F)]DWV[Bip]V[NMeA][dL][Dab]LVTCA-NH2; thioether N-14)
0.01 | CC(C)C[C@@H]1NC(=O)[C@H](CCN)NC(=O)[C@@H](CC(C)C)NC(=O)[C@H](C)N(C)C(=O)[C@H](CCCNC(=N)N)NC(=O)[C@H](Cc2ccc(-c3ccccc3)cc2)NC(=O)[C@H](C(C)C)NC(=O)[C@H](Cc2c[nH]c3ccccc23)NC(=O)[C@H](CC(=O)O)NC(=O)[C@H](Cc2ccc(OCC(=O)O)cc2)NC(=O)[C@H](Cc2ccncc2)NC(=O)CSC[C@@H](C(=O)N[C@@H](C)C(N)=O)NC(=O)[C@H]([C@@H](C)O)NC(=O)[C@H](C(C)C)NC1=O [Compound 1443] ({CH2CO}-[4Pal]Y(Carboxymethyl)DWV[Bip]R[NMeA][dL][Dab]LVTCA-NH2; thioether N-14)
